Measured values from US10898469B2, “Imidazolylamide derivative” (Sumitomo Dainippon Pharma Co., Ltd., priority 2016, dated 2021).
Like-named read-outs stand apart in the source and are kept apart here.

Experiments:
Format in all cases: cell-based, human
[1] = tested on: HCT-116 cells; experiment: Inhibition test for sphere-forming ability of cancer cells (Test Example 1), HCT-116; conditions: for IC50: read-out: IC50 (μmol/L) HCT-116 (Sphere IC50 value); for (100%-inhibition rate of cell proliferation) at 1 μmol/L, HCT-116: value with %
Excerpt: (§1) The reliable methods established for measuring the self-renewal ability of cells which is one of the CSC's properties include a method for measuring the sphere-forming ability of cancer cells in non-adherent condition in the absence of serum (Cancer Res 65, 5506-5511 (2005)). Human colorectal cancer-derived HCT-116 cells, human colon-adenocarcinoma-derived HT-29 cells, and human pharyngeal cancer-derived FaDu cells were available from American Type Culture Collection (ATCC). HCT-116 cells and HT-29 cells were cultured at 37° C. under 5% CO2 using the McCoy's 5a medium containing 10% fetal bovine serum (FBS) and 1% penicillin/streptomycin, and FaDu cells were cultured at 37° C. under 5% CO2 using the MEM medium containing 10% FBS, 1% non-essential amino acid, 1% sodium pyruvate, and 1% penicillin/streptomycin. HCT-116 cells, HT-29 cells, and FaDu cells were seeded in a 384 Well Black Clear Bottom Ultra-Low Attachment Microplate (Corning Cat. No. 3827) in an amount of 350-800 cells/well using the DMEM/F12 medium containing 2% B27 supplement (GIBCO), 20 ng/mL epidermal growth factor (EGF) (peprotech), 10 ng/mL basic fibroblast growth factor (bFGF) (peprotech), 5 μg/mL insulin (Sigma), and 1% penicillin/streptomycin. Each test compound was added into each well to adjust the final concentration of DMSO to 0.1%, and the cells were cultured for 4 days. The number of viable cells in each well was then measured with CellTiter-Glo® Luminescent Cell Viability Assay (Promega) to calculate the concentration of each test compound for 50% inhibition of cell proliferation (Sphere IC50 value; μmol/L).
(§2) The experiment of Test Example 1 was performed for each compound of each Example. The concentration of each test compound for 50% inhibition of cell proliferation (Sphere IC50 value; μmol/L) is shown in the following Table.

[2] = tested on: HT-29 cells; experiment: Inhibition test for sphere-forming ability of cancer cells (Test Example 1), HT-29; conditions: for IC50: read-out: IC50 (μmol/L) HT-29 (Sphere IC50 value); for (100%-inhibition rate of cell proliferation) at 1 μmol/L, HT-29: value with %
Excerpt: as §1, §2

[3] = tested on: FaDu cells; experiment: Inhibition test for sphere-forming ability of cancer cells (Test Example 1), FaDu; conditions: for IC50: read-out: IC50 (μmol/L) FaDu (Sphere IC50 value); for (100%-inhibition rate of cell proliferation) at 1 μmol/L, FaDu: value with %
Excerpt: as §1, §2

[4] = HCT-116 cells, concentration for 50% inhibition of cell proliferation
[5] = concentration for 50% inhibition of cell proliferation
[6] = Homo sapiens, HCT-116 cells, concentration for 50% inhibition of cell proliferation
[7] = Homo sapiens, concentration for 50% inhibition of cell proliferation

Row | Structure (SMILES) | IC50 [1, 4] [µmol/L] | IC50 [2, 5] [µmol/L] | IC50 [3, 5] [µmol/L] | further results
1 | COc1ccc(C(=O)Nc2cn(Cc3cccc(OCc4ccccc4)c3)cn2)cc1OC [Example 169] |  |  |  | (100%-inhibition rate of cell proliferation) at 1 μmol/L, HCT-116 ([1]; HCT-116 cells): 50.9%; (100%-inhibition rate of cell proliferation) at 1 μmol/L, HT-29 [2]: 35.4%; (100%-inhibition rate of cell proliferation) at 1 μmol/L, FaDu [3]: 68.6%
2 | O=C(/C=C/c1ccccc1O)Nc1cn(Cc2cccc(Cl)c2)cn1 [Example 54] | 8.38 | 8.11 | 0.82 | 
3 | O=C(/C=C/c1ccc(C(F)(F)F)cc1)Nc1cn(Cc2cccc(Cl)c2)cn1 [Example 48, (E)-N-(1-(3-Chlorobenzyl)-1H-imidazol-4-yl)-3-(4-(trifluoromethyl)phenyl)acrylamide] |  |  |  | IC50 [1, 6]: 0.76 µmol/L; IC50 [2, 7]: 0.08 µmol/L; IC50 [3, 7]: 0.09 µmol/L
4 | COc1ccc(C(=O)Nc2cn(Cc3ccc(C(C)C)cc3)cn2)cc1OC [Example 168] |  |  |  | (100%-inhibition rate of cell proliferation) at 1 μmol/L, HCT-116 ([1]; HCT-116 cells): 32.1%; (100%-inhibition rate of cell proliferation) at 1 μmol/L, HT-29 [2]: 8.6%; (100%-inhibition rate of cell proliferation) at 1 μmol/L, FaDu [3]: 32.3%
5 | CN(C)c1ccc(/C=C/C(=O)Nc2cn(Cc3cccc(Cl)c3)cn2)cc1 [Example 63] | 0.53 | 0.07 | 0.08 | 
6 | COc1ccc(C(=O)Nc2cn(Cc3ccc4c(c3)C(C)(C)CCC4(C)C)cn2)cc1OC [Example 172] |  |  |  | (100%-inhibition rate of cell proliferation) at 1 μmol/L, HCT-116 ([1]; HCT-116 cells): 34.3%; (100%-inhibition rate of cell proliferation) at 1 μmol/L, HT-29 [2]: 16.6%; (100%-inhibition rate of cell proliferation) at 1 μmol/L, FaDu [3]: 42.3%
7 | O=C(/C=C/c1ccc2[nH]ccc2c1)Nc1cn(Cc2cccc(Cl)c2)cn1 [Example 47, (E)-N-(1-(3-Chlorobenzyl)-1H-imidazol-4-yl)-3-(1H-indol-5-yl)acrylamide] |  |  |  | IC50 [1, 6]: 0.89 µmol/L; IC50 [2, 7]: 0.7 µmol/L; IC50 [3, 7]: 0.76 µmol/L
8 | COc1cc(/C=C/C(=O)Nc2cn(Cc3cccc(Cl)c3)cn2)cc(OC)c1 [Example 85] |  |  |  | IC50 (μmol/L) HCT-116 (Sphere IC50 value) [1, 4]: 17.96 µmol/L; IC50 (μmol/L) HT-29 (Sphere IC50 value) [2, 5]: 25.90 µmol/L; IC50 (μmol/L) FaDu (Sphere IC50 value) [3, 5]: 13.73 µmol/L
9 | Cc1ccc(C(=O)Nc2cn(Cc3cccc(Cl)c3)cn2)cn1 [Example 198] |  |  |  | (100%-inhibition rate of cell proliferation) at 1 μmol/L, HCT-116 ([1]; HCT-116 cells): 55.3%; (100%-inhibition rate of cell proliferation) at 1 μmol/L, HT-29 [2]: 99.8%; (100%-inhibition rate of cell proliferation) at 1 μmol/L, FaDu [3]: 64.5%
10 | COc1ccc(/C=C/C(=O)Nc2cn(Cc3cccc(Cl)c3)cn2)cc1OCC(N)=O [Example 30] |  |  |  | IC50 [1, 6]: > 10 µmol/L; IC50 [2, 7]: > 10 µmol/L; IC50 [3, 7]: 0.71 µmol/L
11 | COc1cc(/C=C/C(=O)Nc2cn(Cc3cccc(Cl)c3)cn2)cc(OC)c1O [Example 67] | 7.34 | 8.37 | 0.79 | 

Second part, led by results:

Row | IC50 [1, 4] [µmol/L] | IC50 [2, 5] [µmol/L] | IC50 [3, 5] [µmol/L] | Structure (SMILES) | further results
12 | 3.82 | 6.12 | 0.76 | O=C(/C=C/c1ccc(O)c(F)c1)Nc1cn(Cc2cccc(Cl)c2)cn1 [Example 81] | 
13 | 4.42 | 0.09 | 0.29 | Cc1ccccc1/C=C/C(=O)Nc1cn(Cc2cccc(Cl)c2)cn1 [Example 72] | 
14 | 0.79 | 0.7 | 0.86 | O=C(/C=C/c1cccc(Oc2ccccc2)c1)Nc1cn(Cc2cccc(Cl)c2)cn1 [Example 79] | 
15 | 0.08 | 0.07 | 0.09 | COc1ccc(C(=O)Nc2cn(Cc3c(F)ccc(C)c3F)cn2)cn1 [Example 216] | inhibitory effect on the sphere-forming ability of cancer cells ([1]; Test Example 1, summary in words, cell line not given (HCT-116, HT-29, FaDu tested)): particularly potent inhibitory effect
16 | 0.92 | 8.34 | 9.4 | O=C(Nc1cn(Cc2cccc(Cl)c2)cn1)c1ccc(OCC(F)(F)F)nc1 [Example 219] | 
17 | 0.96 | 0.61 | 0.04 | O=C(/C=C/c1c[nH]c2ccccc12)Nc1cn(Cc2cccc(Cl)c2)cn1 [Example 89] | 
18 | 0.8 | 0.6 | 0.91 | O=C(/C=C/c1cc(Cl)ccc1Cl)Nc1cn(Cc2cccc(Cl)c2)cn1 [Example 83] | 
